In one test the test system is GLUT. The test can be described thus: glycolysis assay (oligomycin + Cell Titer-Glo ATP readout) in HT1080 cells. Format: cell-based. The conditions noted are these: 10 μM oligomycin, one hour, glycolytically-derived ATP. The essentials:
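HT1080 cells exposed for one hour to compound plus 10 μM oligomycin to block mitochondrial ATP, so remaining ATP reflects glycolysis. Glycolytic ATP read by CellTiter-Glo luminescence; IC50 derived from dose-response curves.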
Background: In ATP-based viability assays light output follows the ATP content of the culture.

The next test deals with T1, GLUT1 (Homo sapiens, UniProt P11166).
T1 construct: endogenous in cells; host or cells: DLD1 WT cancer cells
T1 sequence (P11166 1-492): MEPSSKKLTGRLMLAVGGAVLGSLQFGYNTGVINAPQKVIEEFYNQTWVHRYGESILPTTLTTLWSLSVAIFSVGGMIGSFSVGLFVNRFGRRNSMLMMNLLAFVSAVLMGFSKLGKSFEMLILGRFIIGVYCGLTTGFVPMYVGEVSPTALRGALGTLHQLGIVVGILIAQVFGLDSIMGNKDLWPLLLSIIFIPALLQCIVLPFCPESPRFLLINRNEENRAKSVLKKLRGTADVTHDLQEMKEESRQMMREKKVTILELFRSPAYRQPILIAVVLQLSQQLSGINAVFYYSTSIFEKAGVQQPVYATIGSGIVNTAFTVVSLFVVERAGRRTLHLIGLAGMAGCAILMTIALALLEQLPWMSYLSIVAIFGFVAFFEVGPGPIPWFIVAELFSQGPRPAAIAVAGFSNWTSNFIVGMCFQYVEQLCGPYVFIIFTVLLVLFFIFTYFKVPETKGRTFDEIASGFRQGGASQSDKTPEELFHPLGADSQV
Briefly: glycolysis assay in DLD1 WT cells (rely on GLUT1). It counts as cell-based. The conditions noted are these: DLD1-WT cells; 10 μM oligomycin, one hour. Summed up:
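Cells […] exposed for 1 h to inhibitor plus 10 μM oligomycin to block mitochondrial ATP; remaining glycolytic ATP read by CellTiter-Glo luminescence. IC50 derived from dose-response curves.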

A further test has as its system THP1 monocytes. The test can be described thus: glycolysis assay in LPS-activated THP1 monocytes. Format: cell-based. The conditions noted are these: 1 μg/ml LPS 16 hrs, then one-hour glycolysis assay with oligomycin. The method, then:
In FIG. 5A, THP1 cells were activated with 1 μg/ml LPS for 16 hrs prior to a one-hour glycolysis assay (Example 2+Oligomycin). In FIG. 5B, THP1 cells were treated with Example 2 one hour prior to a 16 hour treatment with 1 μg/ml LPS, after which MCP-1 secretion into the media was measured by ELISA (R&D systems) and cell number measured by Cell Titer Glo (Promega).
THP1 Monocyte assay: THP1 monocytic cancer cells were activated with 1 ug/ml LPS (Sigma-Aldrich). The previously described glycolysis assay was performed 16 hrs post-activation. For cytokine secretion, cells were pre-treated for one hour with GLUT inhibitors prior to 16 hours of 1 μg/ml LPS treatment.

Test [1] relates to markers of Teff and Treg cells. The test can be described thus: flow cytometry of cytokines and lineage transcription factors in activated CD4 T cells. Format: cell-based, human. The conditions noted are these: 1 μM; CD4 T cells activated 48 hrs with IL-1β, TGF-β. How it is done:
FIG. 7. […] FIG. 7A. CD4 T cells were activated for 48 hrs in the presence of IL-1β, TGF-β and 1 μM of the Example 2 compound. For the last 5 hrs, PMA/Ionomycin/Brefeldin A was added and intracellular staining for cytokines was performed. Flow cytometry was used to assess INFγ and IL-17A levels (gated on live cells). FIG. 7B. Cells were cultured and treated as in FIG. 7A, excluding PMA/Ionomycin/Brefeldin A treatment. Flow cytometry was used to assess levels of CD4 T cell lineage defining transcription factors.
GLUT1 and GLUT3 inhibitors downregulate the markers of T effector cells but not T regulatory cells. In, CD4 T cells were activated for 48 hrs in the presence of […], TGF-β and 1 μM of compound Example 2. […] Flow cytometry was used to assess INFγ and IL-17A levels (gated on live cells) and quantification of percent positive cells positive is shown in FIG. 7A. […]
T cell assays: Human CD4 T cells were purified using RossetteSep Human CD4 T cell Enrichment Cocktail. […] IL-17 levels were measured by ELISA (R&D systems, Human IL-17 Quantikine ELISA kit). Proliferation was measured by Cell Titer Glo (Promega). Intracellular staining was performed and analyzed using the Guava EasyCyte flow cytometer. […] Protein levels and phosphorylation status were assessed by western blot analysis using antibodies purchased from Cell Signaling.
Background: A flow cytometer gives signals particle by particle.

The record followed here is patent US11071735B2, “Treatment of inflammatory conditions and autoimmune diseases with glucose uptake inhibitors” (Kadmon Corporation, LLC, priority 2017, dated 2021).

Each structure is given as a SMILES string.

With `CCOc1ccc2nc(-c3cccc(OCC(=O)NC(C)C)c3)nc(Nc3ccc(-c4cn[nH]c4)cc3)c2c1` [Ex. 2, 2-(3-(4-((4-(1H-pyrazol-4-yl)phenyl)amino)-6-ethoxyquinazolin-2-yl)phenoxy)-N-isopropylacetamide], the IC50 with GLUT was found to be 149 nM; on GLUT1 it was 115 nM. Moreover, the “glycolysis in LPS stimulated THP1 monocytes” value with THP1 monocytes was “inhibit glycolysis”. The “markers of Teff and Treg cells” value in test [1] is on record as “downregulate markers of Teff but not Treg cells”.

By IC50 is commonly meant the concentration that inhibits the measured activity by half.
